Source: US20070160491A1, “Method For Determining Lumen Penetration Of A Vapor Phase Sterilant” (priority 2002, published 2007)
Several values for one entry are separate records, joined by “and”; a condition that tells them apart may be missing. Equal values may be shown once. Read-outs that look alike come from different tables or passages of the source.

Assays:
[1] = for rate constant of condensation k^C / rate constant of decomposition k^D: 3 mm stainless steel lumen
Description: k=rate constant for losses in the lumen, sec^−1
The rate of mass input per volume to the lumen 20 by internal processes is a negative term, whenever mass is lost in the lumen 20 by decomposition, absorption, adsorption and condensation. In that case the rate constant k is a negative number.
The rate constant k cannot be measured experimentally inside the lumen 20 without disturbing the internal environment, so a value is assigned for each lumen material, such as stainless steel and polyethylene. The value is adjusted to provide an area scale, which correlates efficacy results from the sterilization cycles, as discussed below.
(§1) An estimate of the area under the concentration-time curve is obtained by summing the one-second concentration values in the injection and diffusion steps of the cycle, as shown in Table 1 for sterilization cycles in a STERRAD® 200 […] sterilizer available from Advanced Sterilization Products division of Ethicon, Inc., Irvine, Calif., with different lumens in the validation load. The area scale for stainless steel (SS) is established by setting the value of the rate constant k equal to 0.46 sec^−1 to give an area of approximately 100 mg−sec/l for the cycles with 3 mm×500 mm stainless steel lumens at 30° C.
(§2) Correcting the rate constant from 0.46 sec^−1 at 30° C. to 1.41 sec^−1 at 5° C. is initiated by writing the rate constant as the sum of the decomposition rate constant k^D and the condensation rate constant k^C. […] For a rate constant 0.46 sec^−1 at 30° C., each individual rate constant of decomposition k^D and condensation k^C is approximately 0.46/2=0.23 sec^−1. […] The rate constant of decomposition k^D at 5° C. is calculated from the rate constant of decomposition k^D at 30° C. and the rate factors for decomposition at 30° C. and 5° C.: k^D at 5° C.=0.23 sec^−1×(1 rate factor at 5° C./7 rate factor at 30° C.)=0.03 sec^−1. […] Finally, the rate constant at 5° C. is calculated as the sum of the rate constants of condensation k^C and of decomposition k^D at 5° C.: k at 5° C.=1.38 sec^−1+0.03 sec^−1=1.41 sec^−1.
The adjustment for diameter is made in Table 1 by correcting the rate constant 0.46 sec^−1 for 3 mm stainless steel lumens to 4.14 sec^−1 for 1 mm lumens with factors for the surface to volume ratio and diffusion radius ratio.
Surface to volume ratio correction factor=(surface/volume)1 mm/(surface/volume)3 mm=(2πrL)1 mm/(2πrL/πr^2L)3 mm=(1/r)1 mm/(1/r)3 mm=[…]=1.5 mm/0.5 mm=3
In addition to correction for surface to volume ratio, correction of the rate constant 0.46 sec^−1 for diffusion radius is necessary, because diffusion to the wall of the smaller lumen is greater than for the larger one. Diffusion radius ratio correction factor=(r)3 mm/(r)1 mm=1.5 mm/0.5 mm=3
The area scale for the second lumen material, polyethylene (PE), in Table 1 is established similarly for a limiting case in the STERRAD® 200 Sterilizer. The rate constant is set at 0.33 sec^−1 for 1 mm×500 mm lumens to give an area of approximately 100 mg−sec/l. […] The rate constant 0.33 sec^−1 for lumens with 1 mm diameter is corrected with factors for the surface to volume ratio and diffusion radius ratio to obtain the rate constant 0.037 sec-^−1 for 3 mm lumens.

[2] = 30 °C
Procedure: as §2

[3] = cited from earlier work
[4] = tested on: biological indicators (test microorganisms)
Description: However, other process variables are also important, such as chamber and load temperature, size and composition of the load and exposure time. For a fixed load configuration in a particular sterilizer with a qualified sterilization cycle, temperature remains relatively constant during injection, so concentration and exposure time become the most important control variables. Area under a concentration-time curve is a useful index for quantifying cycle performance to compare with efficacy as measured via biological indicators.
as §1

[5] = cited from earlier work; remark: listed apart in the source
[6] = lumen 0.8 × 100 mm SS, 30 °C, injection time 6.5 min
[7] = lumen 0.8 × 150 mm SS, 30 °C, injection time 6.5 min
[8] = lumen 1 × 125 mm SS, 30 °C, injection time 6.5 min
[9] = lumen 1 × 500 mm PE, 30 °C, injection time 6.5 min
[10] = lumen 1 × 700 mm PE, 30 °C, injection time 6.5 min
[11] = lumen 3 × 400 mm SS, 5 °C, injection time 6.5 min
[12] = lumen 3 × 400 mm SS, 30 °C, injection time 1 min
[13] = lumen 3 × 400 mm SS, 30 °C, injection time 2 min
[14] = lumen 3 × 400 mm SS, 30 °C, injection time 6.5 min
[15] = lumen 3 × 500 mm SS, 30 °C, injection time 6.5 min
[16] = lumen 3 × 1000 mm PE, 30 °C, injection time 6.5 min
[17] = lumen 3 × 1500 mm PE, 30 °C, injection time 6.5 min

Rate Factor for Decomposition [2]: 7
Compound: OO [hydrogen peroxide]
−k, rate constant for losses in the lumen ([1]; 0.8 mm stainless steel lumens, 30 °C, k3 mm × 3.75 × 3.75): 6.47 s⁻¹
−k, rate constant for losses in the lumen ([1]; 0.8 mm stainless steel lumens, 30 °C, k3 mm × 3.75 × 3.75, listed as H2O2): 6.47 s⁻¹
−k, rate constant for losses in the lumen ([1]; 1 mm polyethylene lumens, 30 °C, k chosen to give 100 mg-sec/l area threshold): 0.33 s⁻¹
−k, rate constant for losses in the lumen ([1]; 1 mm polyethylene lumens, 30 °C, k chosen to give 100 mg-sec/l area threshold, listed as H2O2): 0.33 s⁻¹
−k, rate constant for losses in the lumen ([1]; 1 mm stainless steel lumens, 30 °C, k3 mm × 3 × 3): 4.14 s⁻¹
−k, rate constant for losses in the lumen ([1]; 1 mm stainless steel lumens, 30 °C, k3 mm × 3 × 3, listed as H2O2): 4.14 s⁻¹
−k, rate constant for losses in the lumen ([1]; 1 mm stainless steel lumens, 30 °C, k3 mm × 3 × 3, listed as Hydrogen Peroxide): 4.14 ^d sec^−1
−k, rate constant for losses in the lumen ([1]; 3 mm polyethylene lumens, 30 °C, k1 mm/(3 × 3)): 0.037 s⁻¹
−k, rate constant for losses in the lumen ([1]; 3 mm polyethylene lumens, 30 °C, k1 mm/(3 × 3), listed as H2O2): 0.037 s⁻¹
−k, rate constant for losses in the lumen ([1]; 3 mm polyethylene lumens, 30 °C, k1 mm/(3 × 3), listed as Hydrogen Peroxide): 0.037 ^f sec^−1 and 0.037 sec^−1
rate constant of condensation k^C ([1]; 5 °C): 1.38 s⁻¹
rate constant of decomposition k^D ([1]; 5 °C): 0.03 s⁻¹
rate constant of condensation k^C ([1]; 30 °C): ~0.23 s⁻¹
rate constant of decomposition k^D ([1]; 30 °C): ~0.23 s⁻¹
−k, rate constant for losses in the lumen ([1]; 3 mm stainless steel lumens, 5 °C, calculated from k at 30 °C, vapor pressure data and decomposition rate factor): 1.41 s⁻¹
−k, rate constant for losses in the lumen ([1]; 3 mm stainless steel lumens, 5 °C, calculated from k at 30 °C, vapor pressure data and decomposition rate factor, listed as H2O2): 1.41 s⁻¹
−k, rate constant for losses in the lumen ([1]; 3 mm stainless steel lumens, 5 °C, calculated from k at 30 °C, vapor pressure data and decomposition rate factor, listed as Hydrogen Peroxide): 1.41 ^c sec^−1
−k, rate constant for losses in the lumen ([1]; 3 mm stainless steel lumens, 30 °C, k chosen to give 100 mg-sec/l area threshold): 0.46 s⁻¹
−k, rate constant for losses in the lumen ([1]; 3 mm stainless steel lumens, 30 °C, k chosen to give 100 mg-sec/l area threshold, listed as H2O2): 0.46 s⁻¹
vapor pressure of hydrogen peroxide ([3]; at 5 °C): 0.46 mm Hg
vapor pressure of hydrogen peroxide ([3]; at 30 °C): 2.77 mm Hg
Fraction Positive Biological Indicators [4, 6]: 0/48
Indicator Results Zone [4, 6]: Negative
Fraction Positive Biological Indicators [4, 7]: 2/24
Indicator Results Zone [4, 7]: Positive
Fraction Positive Biological Indicators [4, 8]: 0/36
Indicator Results Zone [4, 8]: Negative
Fraction Positive Biological Indicators [4, 9]: 0/36
Indicator Results Zone [4, 9]: Mixed
Fraction Positive Biological Indicators [4, 10]: 1/12
Indicator Results Zone [4, 10]: Positive
Fraction Positive Biological Indicators [4, 11]: 1/72
Indicator Results Zone [4, 11]: Positive
Fraction Positive Biological Indicators [4, 12]: 4/72
Indicator Results Zone [4, 12]: Mixed
Fraction Positive Biological Indicators [4, 13]: 0/72
Indicator Results Zone [4, 13]: Mixed
Fraction Positive Biological Indicators [4, 14]: 0/72
Indicator Results Zone [4, 14]: Negative
Fraction Positive Biological Indicators [4, 15]: 0/96
Indicator Results Zone [4, 15]: Mixed
Fraction Positive Biological Indicators [4, 16]: 0/36
Indicator Results Zone [4, 16]: Negative
Indicator Results Zone ([4]; lumen 3 × 1500 mm PE, 30 °C, injection time 20, 25, 30 min): Negative
Fraction Positive Biological Indicators [4, 17]: 1/36
Indicator Results Zone [4, 17]: Mixed
Fraction Positive Biological Indicators ([4]; lumen 3 × 1500 mm PE, 30 °C, injection time 20 min): 0/12
Fraction Positive Biological Indicators ([4]; lumen 3 × 1500 mm PE, 30 °C, injection time 25 min): 0/12
Fraction Positive Biological Indicators ([4]; lumen 3 × 1500 mm PE, 30 °C, injection time 30 min): 0/12
Fraction Positive BIs ([4]; lumen 3 × 1500 mm PE, 30 °C, injection times 20, 25, 30 min pooled): 0/36
Rate Factor for Decomposition ([5]; 5 °C (base case)): 1
Rate Factor for Decomposition ([5]; 5 °C (base case), listed as Hydrogen Peroxide): 1 Base Case
Rate Factor for Decomposition ([5]; 15 °C): 2.2
Rate Factor for Decomposition ([5]; 25 °C): 4.84
Rate Factor for Decomposition ([5]; 35 °C): 10.65
Rate Factor for Decomposition ([5]; 45 °C): 23.4
factor by which the decomposition rate increases ([5]; per each 10 °C rise in temperature): 2.2
